# Assay: Solvent vapor pressure at 20° C.
# Settings: not given
# From the text: The solvents used to formulate these compositions, along with a few select physical properties of each solvent, are summarized in Table 2, below.
row,Solvent Vapor Pressure at 20° C.,Compound
1,0.098 torr,CCC(C)OC(=O)CC(C)O (stereo not shown) [2-butyl 3-hydroxybutyrate]
2,0.06 torr,CCCCOC(=O)CC(C)O (stereo not shown) [n-butyl 3-hydroxybutyrate]
3,0.08 torr,CC(C)COC(=O)CC(C)O (stereo not shown) [i-butyl 3-hydroxybutyrate]
4,0.12 torr,CCOCCOCCO [Diethylene Glycol Monoethyl Ether]
5,0.076 torr,OCc1ccccc1 [Benzyl Alcohol]
6,0.17 torr,"CC(O)CC(=O)OC(C)C (stereo not shown) [i-propyl 3-hydroxybutyrate, isopropyl 3-hydroxybutyrate]"

# Same assay, conditions: neat solvent, 20° C.
row,Compound,Solvent Vapor Pressure at 20° C.
1,C=C(C)[C@H]1CC=C(C)CC1 [d-limonene],1.5 torr
2,CCCCOCCOCCO [Diethylene Glycol Monobutyl Ether],0.02 torr
3,dibasic ester,0.20 torr
4,CCCCOCCO [Ethylene glycol monobutyl ether],0.60 torr

# Reference: patent publication US9249378B2, “Aqueous cleaning compositions having enhanced properties” (Eastman Chemical Company, priority 2013, dated 2016)
